Where two headings read alike, the source gives them in different places.
Experiments:
[1] = target: T1, HIV-1 protease (wild-type, WT) (Human immunodeficiency virus type 1 group M subtype B, UniProt P04585); experiment: Inhibition of purified wild-type HIV-1 protease (fluorogenic substrate cleavage), Ki and % inhibition; type: biochemical
T1 construct: purified HIV-1 protease (wild-type, WT)
Method: (§1) The inhibition constants (Ki) for the compounds of the above examples were determined using purified HIV-1 protease (wild-type, WT) (Tables I, II, IV and V) and R8Q and V82I mutant HIV-1 proteases (Table III). Ki is an inhibition constant of a given compound as derived by enzyme kinetics. A low Ki represents a high affinity of the compound for the enzyme, i.e., tight binding or low dissociation. Inhibition of the cleavage was assayed using a fluorogenic substrate available from Molecular Probes, Inc., Eugene, Oreg., and described in Kageyama et al., Antimicrob. Agents. Chemother., 37, 272 (1993), and a fluorogenic substrate available from Bachem California, Torrance, Calif., and described in Kageyama et al. (1993), supra. The inhibitory potencies of these compounds are set forth in Tables I-V. Percent inhibition is the percentage inhibition of an enzyme's activity by a given compound at a given concentration.

viral activity = details: comparison compounds in clinical trials; cited from earlier work
[2] = target: T2, R8Q mutant HIV-1 protease (Human immunodeficiency virus type 1 group M subtype B, UniProt P04585, R496Q); experiment: Inhibition of R8Q mutant HIV-1 protease (fluorogenic substrate cleavage); type: biochemical; details: Table III
T2 construct: R8Q and V82I mutant HIV-1 proteases
Method: as §1

[3] = target: T3, V82I mutant HIV-1 protease (Human immunodeficiency virus type 1 group M subtype B, UniProt P04585, V570I); experiment: Inhibition of V82I mutant HIV-1 protease (fluorogenic substrate cleavage); type: biochemical; details: Table III
T3 construct: R8Q and V82I mutant HIV-1 proteases
Method: as §1

[4] = Table V, spread wrapped on the next line: DN-1 ± 0.6, DN-4 ± 0.09, DN-5 ± 1.3, DN-6B ± 0.3, DN-10 ± 0.007, DN-11 ± 0.1, read-out: Ki
[5] = Table III, wild-type HIV protease, read-out: Ki WT

Work on `O=C(N[C@@H](Cc1ccccc1)[C@@H](O)[C@H](O)[C@H](Cc1ccccc1)NC(=O)c1cccnc1)c1cccnc1` [Compound 23] yielded a Ki ([1]; Table II, read-out: Ki) of 400 nM.
In the case of `O=C(N[C@@H](Cc1ccccc1)[C@H](O)[C@H](O)[C@H](Cc1ccccc1)NC(=O)c1cc(O)c2ccccc2n1)c1cc(O)c2ccccc2n1` [Compound 21], the “inhibition of HIV PR (in words)” value [1] is reported as “diminished binding” and the inhibition at 10 µM ([1]; read-out: % inhib) is reported as 31%.
In the case of `O=C(Cc1cccc(O)c1)N[C@@H](Cc1ccccc1)[C@H](O)[C@H](O)[C@H](Cc1ccccc1)NC(=O)Cc1cccc(O)c1` [Compound 5a], the “inhibition of HIV PR (in words)” value [1] is reported as “small improvements in inhibition of HIV PR” and the Ki ([1]; Table I, read-out: Ki) is reported as 3000 nM.
In the case of `CSC[C@H](NC(=O)COc1cccc2cnccc12)C(=O)N[C@@H](Cc1ccccc1)[C@H](O)C(=O)N1CSC[C@H]1C(=O)NC(C)(C)C` [KNI272], the EC50 (viral activity) is given as 4.2 nM.
Work on `O=C(Nc1ccccc1C(=O)N[C@@H](Cc1ccccc1)[C@@H](O)[C@@H](O)[C@H](Cc1ccccc1)NC(=O)c1cccc(O)c1)OCc1ccccn1` [ND-4] yielded a Ki [1, 4] of 0.7 nM.
`O=C(Nc1ccccc1C(=O)N[C@@H](Cc1ccccc1)C[C@H](O)[C@H](Cc1ccccc1)NC(=O)c1ccccc1NC(=O)OCc1ccccc1)OCc1ccccc1` [Compound 35] showed a Ki ([1]; Table IV, read-out: Ki) of 1.2 nM.
In the case of `O=C(N[C@@H](Cc1ccccc1)[C@H](O)[C@H](O)[C@H](Cc1ccccc1)NC(=O)c1cccc(O)c1)c1cccc(O)c1` [Compound 7, (2S,3R,4S,5S)-2,5-bis[((3-hydroxyphenyl)carbonyl)amino]-3,4-dihydroxy-1,6-diphenyl-hexane], the “inhibition of HIV PR (in words)” value [1] is reported as “potent inhibitors of HIV PR”, the Ki ([1]; Table II, read-out: Ki) is reported as 22 nM and the Ki [1, 5] is reported as 22 nM. For the same compound, the “relative potency, R,S vs R,R diol core (compounds 7 and 8)” value ([1]; in general, R,S core compared with R,R core) was “three times more potent”, the Ki ([1]; read-out: Ki) was 22 nM and the Ki [2] was 36 nM. It also gave a Ki [3] of 51 nM.
For `Nc1cccc(C(=O)N[C@@H](Cc2ccccc2)C[C@H](O)[C@H](Cc2ccccc2)NC(=O)c2cccc(N)c2)c1` [Compound 25], the “inhibition of HIV PR (in words)” value [1] was “did not improve the inhibitory potencies” and the Ki ([1]; Table II, read-out: Ki) was 6 nM.
`O=C(N[C@@H](Cc1ccccc1)[C@H](O)[C@H](O)[C@H](Cc1ccccc1)NC(=O)c1ccc(O)c(O)c1)c1ccc(O)c(O)c1` [Compound 12] gave a Ki ([1]; Table II, unit nm [sic], read-out: Ki) of 80 nM, a Ki [1, 5] of 80 nM and a Ki [2] of 40 nM. For the same compound, the Ki [3] was 235 nM.
In the case of `O=C(N[C@@H](Cc1ccccc1)C[C@H](O)[C@H](Cc1ccccc1)NC(=O)c1cccc(O)c1)c1cccc(O)c1` [Compound 24], the “inhibition of HIV PR (in words)” value [1] is reported as “did not improve the inhibitory potencies”, the Ki ([1]; Table II, read-out: Ki) is reported as 25 nM and the Ki [1, 5] is reported as 25 nM. For the same compound, the Ki [2] was 34 nM and the Ki [3] was 96 nM.
For `Cc1ccc(C(=O)N[C@@H](Cc2ccccc2)[C@H](O)[C@H](O)[C@H](Cc2ccccc2)NC(=O)c2ccc(C)c(O)c2)cc1O` [Compound 16], the Ki ([1]; Table II, read-out: Ki) was 132 nM.
For `O=C(Cc1ccccc1)N[C@@H](Cc1ccccc1)[C@H](O)[C@H](O)[C@H](Cc1ccccc1)NC(=O)Cc1ccccc1` [Compound 5], the “inhibition of HIV PR (in words)” value [1] was “weak inhibitor of HIV PR” and the inhibition at 10 µM ([1]; read-out: % inhib) was 38%.
`O=C(N[C@@H](Cc1ccccc1)[C@H](O)[C@H](O)[C@H](Cc1ccccc1)NC(=O)c1cccc([N+](=O)[O-])c1)c1cccc([N+](=O)[O-])c1` [Compound 22] gave an inhibition at 10 µM ([1]; read-out: % inhib) of 40%.
For `O=C(Cc1ccccc1O)N[C@@H](Cc1ccccc1)[C@H](O)[C@H](O)[C@H](Cc1ccccc1)NC(=O)Cc1ccccc1O` [Compound 5b], the “inhibition of HIV PR (in words)” value [1] was “small improvements in inhibition of HIV PR” and the inhibition at 10 µM ([1]; read-out: % inhib) was 66%.
Work on `O=C(CO)Nc1ccccc1C(=O)N[C@@H](Cc1ccccc1)[C@H](O)[C@H](O)[C@H](Cc1ccccc1)NC(=O)c1ccccc1NC(=O)CO` [Compound 29] yielded a Ki ([1]; Table IV, read-out: Ki) of 41 nM.
For `Nc1ccc(C(=O)N[C@@H](Cc2ccccc2)[C@@H](O)[C@@H](O)[C@H](Cc2ccccc2)NC(=O)c2ccccc2NC(=O)OCc2ccccn2)cc1` [DN-6B], the Ki [1, 4] was 6.6 nM.
For `O=C(NC(Cc1ccccc1)C(O)C(O)C(Cc1ccccc1)NC(=O)c1cccc(O)c1)c1cccc(O)c1` (stereo not shown) [Compound 9], the Ki ([1]; Table II, read-out: Ki) was 43 nM.
In the case of `COCCOCCOc1cccc(C(=O)N[C@@H](Cc2ccccc2)[C@H](O)[C@H](O)[C@H](Cc2ccccc2)NC(=O)c2cccc(OCCOCCOC)c2)c1` [Compound 18], the inhibition at 10 µM ([1]; read-out: % inhib) is reported as 63%.
`O=C(Nc1c(O)cccc1C(=O)N[C@@H](Cc1ccccc1)[C@H](O)[C@H](O)[C@H](Cc1ccccc1)NC(=O)c1cccc(O)c1NC(=O)OCc1ccccc1)OCc1ccccc1` [Compound 33] gave a Ki ([1]; Table IV, read-out: Ki) of 20 nM.
For `O=C(Nc1c(Cl)cccc1C(=O)N[C@@H](Cc1ccccc1)[C@H](O)[C@H](O)[C@H](Cc1ccccc1)NC(=O)c1cccc(Cl)c1NC(=O)OCc1ccccc1)OCc1ccccc1` [Compound 32], the Ki ([1]; Table IV, read-out: Ki) was 91 nM.
With `O=C(N[C@@H](Cc1ccccc1)[C@@H](O)[C@H](O)[C@H](Cc1ccccc1)NC(=O)c1cccc(O)c1)c1cccc(O)c1` [Compound 8] the Ki ([1]; Table II, read-out: Ki) was 79 nM.
With `CC(C)(C)OC(=O)N[C@@H](Cc1ccccc1)[C@@H](O)[C@@H](O)[C@H](Cc1ccccc1)NC(=O)OCc1ccccc1` [DN-10] the Ki [1, 4] was 3.09 nM.
In the case of `O=C(Nc1ncccc1C(=O)N[C@@H](Cc1ccccc1)[C@H](O)[C@H](O)[C@H](Cc1ccccc1)NC(=O)c1cccnc1NC(=O)OCc1ccccc1)OCc1ccccc1` [Compound 30], the Ki ([1]; Table IV, read-out: Ki) is reported as 3 nM.
In the case of `CC(C)(C)NC(=O)[C@@H]1C[C@@H]2CCCC[C@@H]2CN1C[C@@H](O)[C@H](Cc1ccccc1)NC(=O)[C@H](CC(N)=O)NC(=O)c1ccc2ccccc2n1` [Ro31-8959], the EC50 (viral activity) is listed as 10 nM.
With `CC(C)(C)OC(=O)Nc1ccc(C(=O)N[C@@H](Cc2ccccc2)[C@@H](O)[C@@H](O)[C@H](Cc2ccccc2)NC(=O)c2ccccc2NC(=O)OCc2ccccn2)cc1` [DN-6] the inhibition at 1 µM ([1]; Table V, @ 1 μM, read-out: % inhibition (printed after % Inhib. Conc.)) was 15% and the “% Inhib. Conc.” value ([1]; Table V, @ 10 NM (so in the source)) was 40%.
In the case of `O=C(Nc1ccccc1C(=O)N[C@@H](Cc1ccccc1)[C@H](O)[C@H](O)[C@H](Cc1ccccc1)NC(=O)c1cccc(O)c1)OCc1ccccn1` [DN-4], the Ki [1, 4] is reported as 1.7 nM.
With `CCOC(=O)Nc1ccccc1C(=O)N[C@@H](Cc1ccccc1)[C@H](O)[C@H](O)[C@H](Cc1ccccc1)NC(=O)c1ccccc1NC(=O)OCC` [Compound 28] the inhibition at 10 µM ([1]; Table IV, @ 10 μM, read-out: % inhibition) was 41%.
With `O=C(N[C@@H](Cc1ccccc1)[C@@H](O)[C@H](O)[C@H](Cc1ccccc1)NC(=O)c1ccccc1O)c1ccccc1O` [Compound 11] the “inhibition of HIV PR (in words)” value [1] was “dramatic loss in enzyme inhibitory potency”, the inhibition at 10 µM ([1]; at 10 μM, read-out: % inhibition) was 66% and the inhibition at 10 µM ([1]; read-out: % inhib) was 66%.
In the case of `O=C(N[C@@H](Cc1ccccc1)[C@H](O)[C@H](O)[C@H](Cc1ccccc1)NC(=O)c1cc(=O)c2ccccc2o1)c1cc(=O)c2ccccc2o1` [Compound 20], the “inhibition of HIV PR (in words)” value [1] is reported as “diminished binding” and the inhibition at 10 µM ([1]; read-out: % inhib) is reported as 67%.
In the case of `Cc1cccc(C(=O)N[C@@H](Cc2ccccc2)[C@H](O)[C@H](O)[C@H](Cc2ccccc2)NC(=O)c2cccc(C)c2NC(=O)OCc2ccccc2)c1NC(=O)OCc1ccccc1` [Compound 31], the Ki ([1]; Table IV, read-out: Ki) is reported as 12 nM.
With `O=C(N[C@@H](Cc1ccccc1)[C@H](O)[C@H](O)[C@H](Cc1ccccc1)NC(=O)c1cccc(O)c1)OCc1ccccc1` [DN-1] the Ki [1, 4] was 11.9 nM.
For `Cc1ccc(O)cc1C(=O)N[C@@H](Cc1ccccc1)[C@H](O)[C@H](O)[C@H](Cc1ccccc1)NC(=O)c1cc(O)ccc1C` [Compound 15], the Ki ([1]; Table II, read-out: Ki) was 75 nM, the Ki [1, 5] was 75 nM and the Ki ([1]; read-out: Ki) was 75 nM. The Ki [2] was 89 nM and the Ki [3] was 54 nM.
Work on `CC(C)(C)OC(=O)Nc1ccc(C(=O)N[C@@H](Cc2ccccc2)[C@@H](O)[C@@H](O)[C@H](Cc2ccccc2)NC(=O)OCc2ccccc2)cc1` [DN-5] yielded a Ki [1, 4] of 15.8 nM.
Compound `O=C(N[C@@H](Cc1ccccc1)[C@H](O)[C@H](O)[C@H](Cc1ccccc1)NC(=O)c1cccc(OCCOc2ccccc2)c1)c1cccc(OCCOc2ccccc2)c1` [Compound 19] has an inhibition at 10 µM ([1]; read-out: % inhib) of 9%.
With `Nc1cccc(C(=O)N[C@@H](Cc2ccccc2)[C@H](O)[C@H](O)[C@H](Cc2ccccc2)NC(=O)c2cccc(N)c2)c1` [Compound 17] the “inhibition of HIV PR (in words)” value [1] was “potent inhibitors of HIV PR”, the Ki ([1]; Table II, read-out: Ki) was 5 nM and the Ki [1, 5] was 5 nM. For the same compound, the Ki ([1]; read-out: Ki) was 5 nM, the Ki [2] was 20 nM and the Ki [3] was 109 nM.
`CC(=O)Nc1ccccc1C(=O)N[C@@H](Cc1ccccc1)[C@H](O)[C@H](O)[C@H](Cc1ccccc1)NC(=O)c1ccccc1NC(C)=O` [Compound 26] gave a Ki ([1]; Table IV, read-out: Ki) of 41 nM and a Ki ([1]; read-out: Ki) of 41 nM.
Work on `O=C(N[C@@H](Cc1ccccc1)[C@H](O)[C@H](O)[C@H](Cc1ccccc1)NC(=O)c1cc(O)cc(O)c1)c1cc(O)cc(O)c1` [Compound 13] yielded a Ki ([1]; Table II, read-out: Ki) of 700 nM.
`O=C(N[C@@H](Cc1ccccc1)[C@@H](O)[C@H](O)[C@H](Cc1ccccc1)NC(=O)c1ccc(O)cc1)c1ccc(O)cc1` [Compound 10] gave a Ki ([1]; Table II, read-out: Ki) of 330 nM and a Ki ([1]; read-out: Ki) of 330 nM.
For `Cc1cc(O)cc(C(=O)N[C@@H](Cc2ccccc2)[C@H](O)[C@H](O)[C@H](Cc2ccccc2)NC(=O)c2cc(C)cc(O)c2)c1` [Compound 14], the Ki ([1]; Table II, read-out: Ki) was 1000 nM.
Compound `O=C(N[C@@H](Cc1ccccc1)[C@@H](O)[C@H](O)[C@H](Cc1ccccc1)NC(=O)c1ccccc1)c1ccccc1` [Compound 6] has an inhibition at 10 µM ([1]; read-out: % inhib) of 55%.
